These results are taken from paper PMC12888861, “Antibacterial activity of enmetazobactam against Acinetobacter spp.: a molecular dissection of mechanism of action and resistance determinants” (Antimicrobial Agents and Chemotherapy, 2025).

As a reminder, the IC50 is the point on the concentration scale where inhibition reaches its midpoint. By residence time is commonly meant how long the partners stay bound on average. A word on the koff: it is the first-order rate constant of dissociation. Higher therefore signals a short-lived complex. The term Km denotes the concentration of substrate that gives half-maximal velocity. One may read the kcat as the number of substrate molecules converted per active site and unit of time at saturation. As usually defined, the kcat/Km is the turnover number divided by the Michaelis constant. For orientation: MIC means the smallest concentration in the dilution series that meets the test's criterion for growth inhibition.

Data set [1] concerns the target T1, OXA-23 (Acinetobacter baumannii, UniProt Q9L4P2).
T1 construct: GST (N); made in house; host or cells: Escherichia coli BL21
As to the kind of experiment: OXA-23 inhibition assay (nitrocefin hydrolysis IC50). Type of data set: biochemical. The note with it: OXA-23; nitrocefin hydrolysis; 10 min preincubation at room temperature; read-out: IC50. The protocol:
(§1) The Michaelis-Menten constant (Km) was determined by fitting the data to the Michaelis-Menten equation, following established protocols ([38]). The kcat (hydrolysis rate constant of the β-lactamase) was obtained by linearization of the kinetic data ([39]). To assess the possible inhibitory capacity of enmetazobactam against the CHDLs of A. baumannii, specific OXA-23 inhibition kinetics assays were performed in a Nanoquant Infinite spectrophotometer (Tecan). […] Also, the dissociation constant (koff), which represents the rate at which the enzyme-inhibitor complex dissociates (i.e., the proportion of the enzyme-inhibitor complex that dissociates per unit of time), was determined through a jump-dilution assay that monitored OXA-23 activity recovery as the enzyme-inhibitor complex dissociated. OXA-23 (1 µM) was preincubated for 30 min at 37°C with excess of inhibitors (50× IC₅₀) to ensure full acyl-enzyme complex formation. Subsequently, the mixture was diluted 1:5,000 to allow gradual complex dissociation. […] Enzymatic activity, reflecting the progressive dissociation of the acyl-enzyme complex, was monitored spectrophotometrically at 490 nm for 8 h. The resulting progress curves were fitted using GraphPad Prism (GraphPad Software, MA, USA) to equation 1 to estimate koff, where V0 is the initial, inhibited enzyme velocity; Vs is the steady-state uninhibited enzyme velocity, and t is time.

In data set [2] the target is T1, OXA-23. As to the kind of experiment: Jump-dilution dissociation assay (koff, t1/2) with OXA-23. It is filed as biochemical. The protocol:
as §1
(1) P=Vs×t+(V0−Vs)×[1−exp^(−koff × t)]/koff

The next data set concerns OXA-24/40. The note with it: cited from earlier work.
The subject of data set [3] is [H][C@@]12CC(=O)N1[C@@H](C(=O)[O-])[C@](C)(Cn1cc[n+](C)n1)S2(=O)=O. As to the kind of experiment: purified protein, by the assay type. Conditions: other: hydrolysis by OXA-23, 25°C, pH 7.4.
Method: All kinetics measurements were performed in triplicate, at 25°C, in 20 mM NaHCO3 and 50 mM Na2HPO4 at pH 7.4.
For data set [4], the system named is carbapenem-resistant CHDL-producing A. baumannii isolates (OXA-23, OXA-24/40, OXA-58). As to the kind of experiment: Checkerboard synergy assay (FIC index). Type of data set: cell-based, Acinetobacter baumannii. Conditions: checkerboard colistin x enmetazobactam, alone or in presence of the partner. The protocol:
Checkerboard assays were performed to assess synergistic interactions between the cefepime/enmetazobactam combination and sulbactam, as well as between enmetazobactam alone and either sulbactam or colistin. […] The assays were conducted with three multidrug-resistant A. baumannii isolates from the Spanish Multicenter Collection, each producing a different OXA-type carbapenemase: OXA-23, OXA-24/40, or OXA-58. The FIC index was calculated and interpreted as follows: FICindex ≤ 0.5, synergy; FICindex > 0.5–4, no synergy; and FICindex > 4, antagonism ([33], [34]).

T1 sequence (Q9L4P2 18-273): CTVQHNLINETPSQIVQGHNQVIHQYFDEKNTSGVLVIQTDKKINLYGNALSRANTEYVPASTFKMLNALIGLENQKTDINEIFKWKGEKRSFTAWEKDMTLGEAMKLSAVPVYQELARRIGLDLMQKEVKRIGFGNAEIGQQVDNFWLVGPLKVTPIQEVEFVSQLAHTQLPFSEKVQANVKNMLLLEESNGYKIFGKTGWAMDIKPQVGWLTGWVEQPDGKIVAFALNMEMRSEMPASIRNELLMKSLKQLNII

For the molecule `CC1=C[C@@H]2CN(C(=O)N2OS(=O)(=O)O)[C@@H]1C(N)=O` [durlobactam], the results for the IC50 at OXA-23 [1] and in the data set with OXA-24/40 were 170 nM and 190 nM, respectively. In addition, the residence time at OXA-23 [2] (jump dilution) was determined as 412 ± 4 min. At OXA-23 [2] (jump dilution 1:5,000), this molecule showed a koff of 2.8e-05 s⁻¹.

Turning to OXA-23 (Acinetobacter baumannii), in data set [3], the Km was determined as 171.85 ± 55.78 µM, the kcat turned out to be 0.177 ± 0.056 s⁻¹ and the kcat/Km came out at 1030 M⁻¹ s⁻¹.

Regarding colistin, the MIC in data set [4] (isolate Ab4 (OXA-23)) was 1 µg/mL; in data set [4] (isolate Ab138 (OXA-58)), 1 µg/mL; in data set [4] (isolate Ab180 (OXA-24/40)) it was 0.25 µg/mL.
